Reference: US11529334B2, “Pharmaceutical composition for treating or preventing Parkinson's disease comprising STT as an active ingredient” (GACHON UNIVERSITY OF INDUSTRY—ACADEMIC COOPERATION …, priority 2019, dated 2022)

Biological target: T1, TPP domain of DUSP10 (Homo sapiens, UniProt Q9Y6W6)
T1 sequence (Q9Y6W6 321-464 limits assumed): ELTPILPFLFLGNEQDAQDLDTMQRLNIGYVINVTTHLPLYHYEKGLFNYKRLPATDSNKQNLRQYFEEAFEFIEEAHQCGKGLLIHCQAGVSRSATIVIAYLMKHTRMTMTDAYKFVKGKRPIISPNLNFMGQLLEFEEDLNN
Assay: SPR (Surface Plasmon Resonance) assay, Reichert SR7500DC
Type: binding
Experimental: SPR (Surface Plasmon Resonance) assay was performed using Reichert SR7500DC system to confirm the presence or absence of interaction between the compounds above and the TPP domain of DUSP10.

[1] = Table 1, running buffer 1xPBS, 2% DMSO
[2] = Table 1, running buffer 1xPBS, pH 7.4

interaction with the TPP domain (in words) (SPR): weak interaction
Ka (association rate) [1]: 2.90(4) M−^1-s−^1
Kd [1]: 12.3 mM
Kd (dissociation rate) [1]: 0.0357(6) s−^1
Ka (association rate) [2]: 3.50(5) M−^1-s−^1
Kd [2]: 17.9 mM
Kd (dissociation rate) [2]: 0.0627(9) s−^1
Kd (Table 2, 0-200 mM analyte): 63 mM
Ka (Table 2, higher analyte concentrations (MES up to 200 mM, STT up to 10 mM)): 0.152(7) M−^1-s−^1
dissociation rate constant (kd) (Table 2, second column headed Ka, higher analyte concentrations): 0.0096(2) s−^1
Compound: O=S(=O)(O)CCN1CCOCC1 [MES]
